Results taken from patent US12655139B2, “Isoxazolidines as RIPK1 inhibitors and use thereof” (SANOFI, priority 2020, dated 2026).
Where a name gives a salt, the structure may show the parent alone.

Tested on: U937 cells
Assay: Cellular assay in U937 cells on cell death (necroptosis), TNFα/zVAD.fmk
Assay type: cell-based
Settings: Homo sapiens, U-937, Comparator table 5; read-out: U937 IC50 (uM) Mean
Text: Cellular Assay in U937 Cells to Measure the Activity of RIPK1-Inhibitors on Cell Death (Necroptosis).
Cell death was quantified in 96 well plates by determination of the amount of live cell using a CellTiter 96 AQueous reagent (Promega), a calorimetric method to measure the amount of live cells by reducing tetrazolium compound [3-(4,5-dimethylthiazol-2-yl)-5-(3-carboxymethoxyphenyl)-2-(4-sulfophenyl)-2H-tetrazolium, inner salt; MTS] into formazan. Absorbance of formazan was read at 490 nm. The inhibitory activity of the test compound was quantified in a concentration response curve (CRC) experiment. Compounds were obtained as 10 mM stock solutions and were diluted 1 to 10 volumes with DMSO to yield a 1 mM solution. From this solution 2 μl were diluted with 998 μl growth medium. 100 μl of 2 μM compound solution was further diluted sequentially with a dilution factor of 2.5 by adding 150 μl growth medium. A total of 10 concentrations were tested ranging from 10 μM to 0.26 nM or from 1 μM to 0.07 nM.
U937 cells were cultured in RPMI1640 Glutamax and 10% heat inactivated FBS. 50 μl cell suspension containing 1×10^6 cells/ml supplemented with 50 μM zVAD.fmk (Benzyloxycarbonyl-Val-Ala-Asp (OMe) fluoromethylketone) and 100 ng/ml recombinant human TNFα were dispensed in each well of a 96-well plate. 50 μl of compound dilutions (see above) were added and the cell suspension incubated overnight (18 to 24 hours) at 37° C., 5% CO2 in a humidified atmosphere (95% rH). High (no compound) and low control (no TNFα, zVAD.fmk) were tested with 7 replicates; all compound concentrations were tested in duplicates on each experimental plate.
CellTiter 96 Aqueous reagent was mixed (100 μl PMS (phenazine methosulfate) solution/2 ml MTS (3-(4,5-[…])-5-(3-carboxymethoxyphenyl)-2-(4-sulfophenyl)-2H-tetrazolium, inner salt) solution) and 20 μl were added per well. After 4 hours incubation at 37° C. (5% CO2 95% rH) optical density was measured at 490 nm on a microplate reader (Tecan Infinite M1000).
The % inhibition is expressed as percentage of the maximal inhibition value obtained in the absence of TNFα/zVAD.fmc.

SMILES | IC50 [µM]
NC(=O)c1ccnc(N2CCC(C(=O)N3OCC[C@H]3c3cc(F)cc(F)c3)CC2)n1 [E, reference compound] | 0.002
CC(C)(C)OC(=O)N1CC[C@@H](C(=O)N2OCC[C@H]2c2cncc(F)c2)[C@@H](F)C1 [F, reference compound] | > 10

Same assay, conditions: Homo sapiens, U-937, Table 2; read-out: U937 IC50

SMILES | IC50 [µM]
Cn1ccc(C2CCON2C(=O)C2CCN(c3nccc(C(N)=O)n3)CC2)n1 (racemic) [Ex. 002*] | 1.83
NC(=O)c1ccnc(N2CCC(C(=O)N3OCCC3c3ccc4nccn4c3)CC2)n1 (racemic) [Ex. 012*] | 7.26
NC(=O)c1cncc(C2CCON2C(=O)C2CCN(c3nccc(C(N)=O)n3)CC2)c1 (racemic) [Ex. 029*] | 2.2
CNC(=O)c1cncc(C2CCON2C(=O)C2CCN(c3nccc(C(N)=O)n3)CC2)c1 (racemic) [Ex. 040*] | > 10
Cc1nnc(C2CCON2C(=O)C2CCN(c3nccc(C(N)=O)n3)CC2)s1 (racemic) [Ex. 089*] | 2.16
Cn1ccc(C2CCON2C(=O)C2CCN(c3cc(C#N)ncn3)CC2)n1 (racemic) [Example 006, 6-[4-[3-(1-methylpyrazol-3-yl)isoxazolidine-2-carbonyl]-1-piperidyl]pyrimidine 4-carbonitrile] | 5.6
Cn1ccc(C2CCON2C(=O)C2CCN(c3cc(C(N)=O)ncn3)CC2)n1 (racemic) [Example 008, 6-[4-[3-(1-methylpyrazol-3-yl)isoxazolidine-2-carbonyl]-1-piperidyl] pyrimidine-4-carboxamide TFA salt] | 5.22
CNC(=O)c1cncc(C2CCON2C(=O)C2CCN(c3cc(C(N)=O)ncn3)CC2)c1 (racemic) [Example 041] | > 10
NC(=O)c1ccnc(N2CCC(C(=O)N3OCC[C@H]3c3cncnc3)CC2)n1 [Ex. 003] | 0.29
N#Cc1cncc([C@@H]2CCON2C(=O)C2CCN(c3cc(C#N)ncn3)CC2)c1 [Ex. 005] | 0.115
N#Cc1cncc([C@@H]2CCON2C(=O)C2CCN(c3cc(C#N)ccn3)CC2)c1 [Ex. 017] | 0.343
CC1(C(=O)N2OCC[C@H]2c2cncc(C#N)c2)CCN(c2ncc(F)c(OCC#N)n2)CC1 [Ex. 018] | 0.0103
NC(=O)c1ccnc(N2CCC(C(=O)N3OCCC3c3ccc(O)nc3)CC2)n1 (centres unmarked) [Ex. 022] | > 10
CCOC(=O)COc1nc(N2CCC(C(=O)N3OCC[C@H]3c3cncc(C#N)c3)CC2)ncc1F [Ex. 027, Ethyl 2-[2-[4-[(3S)-3-(5-cyano-3-pyridyl)isoxazolidine-2-carbonyl]-1-piperidyl]-5-fluoro-pyrimidin-4-yl]oxyacetate] | 0.528
CC(=O)Nc1cncc([C@@H]2CCON2C(=O)C2CCN(c3nccc(C(N)=O)n3)CC2)c1 [Ex. 043] | 2.7
NC(=O)c1ccnc(N2CCC(C(=O)N3OCC[C@H]3c3cncc(N4CCCC4=O)c3)CC2)n1 [Ex. 060] | 7.31
CC1(C(=O)N2OCC[C@H]2c2cncnc2)CCN(c2ncc(F)c(OCC#N)n2)CC1 [Ex. 062] | 0.0124
N#CCOc1nc(N2CCC(C(=O)N3OCC[C@H]3c3cncnc3)CC2)ncc1F [Ex. 063] | 0.0151
NC(=O)c1ccnc(N2CCC(C(=O)N3OCC[C@H]3c3cnccn3)CC2)n1 [Ex. 074] | 0.00975
CCN1CCC(CNC(=O)c2ccnc(N3CCC(C(=O)N4OCC[C@H]4c4cncc(C#N)c4)CC3)n2)CC1 [Ex. 079] | 1.67

SMILES | IC50 [µM]
Cc1cncc([C@@H]2CCON2C(=O)C2CCN(c3ncc(F)c(C(N)=O)n3)CC2)n1 [Ex. 082] | 0.00325
NC(=O)c1nc(N2CCC(C(=O)N3OCC[C@H]3c3ccc(Cl)cn3)CC2)ncc1F [Ex. 084] | 0.0178
N#Cc1cncc([C@@H]2CCON2C(=O)C2CCN(c3nccc(C(=O)NC4CNC4)n3)CC2)c1 [Ex. 086, N-(Azetidin-3-yl)-2-[4-[(3S)-3-(5-cyano-3-pyridyl)isoxazolidine-2-carbonyl]-1-piperidyl]pyrimidine-4-carboxamide TFA salt] | 8.68
NC(=O)c1cncc([C@@H]2CCON2C(=O)C2CCN(c3ncc(F)c(C(N)=O)n3)CC2)c1 [Ex. 101] | 0.442
N#Cc1cncc([C@@H]2CCON2C(=O)C2CCN(c3nccc(C(N)=O)n3)CC2)n1 [Ex. 118] | 0.00761
N#Cc1cncc([C@@H]2CCON2C(=O)C2CCN(c3nccc(Br)n3)CC2)c1 [Ex. 161] | 0.02
COc1cncc([C@@H]2CCON2C(=O)C2CCN(c3ncc(F)c(C(N)=O)n3)CC2)n1 [Ex. 177] | 0.00586
N#Cc1nc([C@@H]2CCON2C(=O)C2CCN(c3nccc(C(N)=O)n3)CC2)cs1 [Ex. 188] | 0.204
N#Cc1ccc([C@@H]2CCON2C(=O)C2CCN(c3ncc(F)c(C#N)n3)CC2)nc1 [compound 112, 2-[4-[(3S)-3-(5-cyano-2-pyridyl)isoxazolidine-2-carbonyl]-1-piperidyl]-5-fluoro-pyrimidine-4-carbonitrile] | 0.0755
COc1nc(N2CCC(C(=O)N3OCC[C@H]3c3ccc(C#N)cn3)CC2)ncc1F [compound 117] | 0.0684
N#Cc1cncc([C@@H]2CCON2C(=O)C2CCN(c3ncc(F)c(O)n3)CC2)c1 [compound 125, 5-[(3S)-2-[1-(5-fluoro-4-hydroxy-pyrimidin-2-yl)piperidine-4-carbonyl]isoxazolidin-3-yl]pyridine-3-carbonitrile] | 8.65
Cc1ccc([C@@H]2CCON2C(=O)C2CCN(c3cc(C#N)ncn3)CC2)cn1 [compound 128, (S)-6-(4-(3-(6-methylpyridin-3-yl)isoxazolidine-2-carbonyl)piperidin-1-yl)pyrimidine-4-carbonitrile] | 0.224
Cc1cncc([C@@H]2CCON2C(=O)C2CCN(c3nccc(C(N)=O)n3)CC2)c1 [compound 132, (S)-2-(4-(3-(5-methylpyridin-3-yl)isoxazolidine-2-carbonyl)piperidin-1-yl)pyrimidine-4-carboxamide] | 0.0319
Cc1ccc([C@@H]2CCON2C(=O)C2CCN(c3cc(C(N)=O)ncn3)CC2)cn1 [compound 135, (S)-6-(4-(3-(6-methylpyridin-3-yl)isoxazolidine-2-carbonyl)piperidin-1-yl)pyrimidine-4-carboxamide] | 0.491
Cc1ncc([C@@H]2CCON2C(=O)C2CCN(c3nccc(C#N)n3)CC2)cc1F [compound 136, (S)-2-(4-(3-(5-fluoro-6-methylpyridin-3-yl)isoxazolidine-2-carbonyl)piperidin-1-yl)pyrimidine-4-carbonitrile] | 0.0204
N#Cc1cncc([C@@H]2CCON2C(=O)C2CCN(c3ccnc(N)n3)CC2)c1 [compound 148, 5-[(3S)-2-[1-(2-aminopyrimidin-4-yl)piperidine-4-carbonyl]isoxazolidin-3-yl]pyridine-3-carbonitrile] | 2.21
O=C(C1CCN(c2ncnc(Cl)n2)CC1)N1OCC[C@H]1c1cnccn1 [compound 174, [1-(4-chloro-1,3,5-triazin-2-yl)-4-piperidyl]-[(3S)-3-pyrazin-2-ylisoxazolidin-2-yl]methanone] | 3.03
COc1nc(Cl)nc(N2CCC(C(=O)N3OCC[C@H]3c3cnccn3)CC2)n1 [compound 181, [1-(4-chloro-6-methoxy-1,3,5-triazin-2-yl)-4-piperidyl]-[(3S)-3-pyrazin-2-ylisoxazolidin-2-yl]methanone] | 0.0301
Cc1ccc([C@@H]2CCON2C(=O)C2CCN(c3ncc(F)c(C(N)=O)n3)CC2)s1 [compound 183, 5-fluoro-2-[4-[(3S)-3-(5-methyl-2-thienyl)isoxazolidine-2-carbonyl]-1-piperidyl]pyrimidine-4-carboxamide] | 0.000675
